Source: the NIST ThermoML archive (doi:10.1016/j.jct.2010.05.011)

Tests used:
[1] = 101.33 kPa, Liquid; for speed of sound: Sing-around technique in a fixed-path interferometer; for mass density: Vibrating tube method; for viscosity: Capillary tube (Ostwald / Ubbelohde) method
[2] = refractive index (Na D-line) (dimensionless); details: 101.33 kPa, Liquid, Standard Abbe refractometry

CCOS(=O)(=O)[O-].CCc1cccc[n+]1CC [1,2-diethylpyridinium ethylsulfate]
Details	mass density, [1] [kg/m3]	refractive index, [2]	speed of sound, [1] [m/s]	viscosity, [1] [mPa·s]
293.15 K	1223.6	1.5146	1759.3	–
298.15 K	1220.2	1.51328	1745.6	324.7
303.15 K	1217	1.51192	1731.3	233.2
308.15 K	1213.9	1.51057	1718.6	175.8
313.15 K	1210.3	1.5092	1705.7	135.5
318.15 K	1206.8	1.50788	1693	104
323.15 K	1203.4	1.50648	1680.5	83.3
328.15 K	1200.1	1.50513	1668.1	67.2
333.15 K	1196.8	1.50376	1656.2	55
338.15 K	1193.6	1.50239	1644.3	45.6
343.15 K	1190.3	1.5009	1632.7	38.12

COS(=O)(=O)[O-].Cc1ccc[n+](C)c1 [1,3-dimethylpyridinium methyl sulfate]
Details	mass density, [1] [kg/m3]	refractive index, [2]	speed of sound, [1] [m/s]	viscosity, [1] [mPa·s]
293.15 K	1305.87	1.5147	1834.9	–
298.15 K	1302.51	1.5133	1822.2	128.6
303.15 K	1299.14	1.51184	1809.7	97.1
308.15 K	1295.77	1.51051	1797.5	76.8
313.15 K	1292.42	1.50911	1785.4	61.2
318.15 K	1289.07	1.5077	1773.5	49.6
323.15 K	1285.74	1.5062	1761.7	40.86
328.15 K	1282.42	1.50472	1750	34.19
333.15 K	1279.11	1.50331	1738.4	28.8
338.15 K	1275.82	1.50193	1726.9	24.58
343.15 K	1272.55	1.50046	1715.6	21.15

COS(=O)(=O)[O-].C[n+]1ccccc1 [1-methylpyridinium methylsulfate]
Details	mass density, [1] [kg/m3]	refractive index, [2]	speed of sound, [1] [m/s]	viscosity, [1] [mPa·s]
293.15 K	1348.22	1.51431	1888.6	–
298.15 K	1344.83	1.51296	1876.4	116.2
303.15 K	1341.44	1.51162	1864.4	91
308.15 K	1338.07	1.51029	1852.6	73.1
313.15 K	1334.71	1.50895	1840.9	59.7
318.15 K	1331.35	1.50764	1829.4	49.3
323.15 K	1328.01	1.50629	1817.9	41.29
328.15 K	1324.69	1.50497	1806.5	35.41
333.15 K	1321.38	1.50361	1795.2	30.22
338.15 K	1318.09	1.50226	1784	26.16
343.15 K	1314.82	1.5009	1772.8	22.77

CCc1cccc[n+]1C.COS(=O)(=O)[O-] [2-ethyl-1-methylpyridinium methyl sulfate]
Details	mass density, [1] [kg/m3]	refractive index, [2]	speed of sound, [1] [m/s]	viscosity, [1] [mPa·s]
293.15 K	1288.3	1.52031	1869.2	–
298.15 K	1284.7	1.51902	1856	4559
303.15 K	1281.3	1.5177	1842.4	3207
308.15 K	1277.9	1.5164	1830.5	2329
313.15 K	1274.49	1.51508	1818.4	1728
318.15 K	1271.15	1.51374	1806.5	1293
323.15 K	1267.6	1.51245	1794.9	1012
328.15 K	1264.5	1.51115	1783	802
333.15 K	1261.3	1.50982	1770.2	646
338.15 K	1258.1	1.50852	1758.5	528
343.15 K	1254	1.50722	1747	437
